Results reported in patent EP1232756A1, “DRUGS, DRINKS OR FOODS” (Takara Shuzo Co, Ltd., priority 1999, dated 2001).
Marks after values point to notes of the source that are not given here.

How the values were obtained:
Type in all cases: in vivo
female SD rat [1] = assay: Effect of ethanol concentration on anti-estrogenic activity of EGCG, rat uterine weight (Example 4); conditions: for Uterine weight: 90 minutes before BisA; for Ratio: vs control (100%)
Procedure: (§1) A 16-days old female SD rat (Japan SLC) was purchased together with its mother, weaned at 19 days of age, and subjected to experiments from the next day. BisA was weighed such that it would be administered at 40 mg/kg and dissolved in a small volume of ethanol. Peanut oil was added thereto to result in a final ethanol concentration of 5%. The resulting mixture was subcutaneously administered for three successive days. The uterine removed on the day after the third administration day was weighed. EGCG (200 mg/kg) was dissolved by adding ethanol and water was then added thereto to adjust the final ethanol concentration to 10, 5, 1, 0.5 or 0%. The solution was orally administered 90 minutes before the administration of BisA.

female SD rat [2] = assay: Antagonistic (anti-estrogenic) activity of EGCG against bisphenol-A, immature rat uterine weight (Example 1(3)); conditions: BisA 800 mg/kg + EGCG 800 mg/kg oral at the same time
Procedure: (§2) A 17-days old female SD rat (purchased from Japan SLC) was received together with its mother, weaned at 20 days of age, and subjected to experiments from the next day. Five ml per kg body weight of EGCG (Sigma) or bisphenol-A (hereinafter referred to as BisA, Tokyo Kasei Kogyo) suspended in peanut oil (Nacalai Tesque) was administered orally and forcibly. Peanut oil was administered to a control rat in a similar manner. Administration was carried out once a day for three successive days. The uterine removed 24 hours after the last administration was weighed. BisA (800 mg/kg) and EGCG (800 mg/kg) were administered at the same time.

female SD rat [3] = assay: Dose dependency of anti-estrogenic activity of solution of EGCG in ethanol, rat uterine weight (Example 6); conditions: for Uterine weight: 30 minutes before BisA; for Ratio: vs control (100%)
Procedure: as §1, with “subcutaneously or orally” for “subcutaneously”, “EGCG” for “EGCG (200 mg/kg)”, “10%.” for “10, 5, 1, 0.5 or 0%.”, “30” for “90”

female SD rat [4] = assay: Anti-estrogenic activity of solution of EGCG in ethanol, subcutaneous BisA, rat uterine weight (Example 5); conditions: for Uterine weight / Ratio: 30 minutes before BisA; for Ratio: vs control (100%)
Procedure: as §1, with “10” for “10, 5, 1, 0.5”, “30” for “90”

female SD rat [5] = assay: Anti-estrogenic activity of solution of EGCG in ethanol against bisphenol-A, rat uterine weight (Example 2); conditions: for Uterine weight: 30 minutes before BisA; for Ratio: vs control (100%)
Procedure: A 17-days old female SD rat (purchased from Japan SLC) was received together with its mother, weaned at 20 days of age, and subjected to experiments from the next day. BisA was weighed such that it would be administered at 200 or 40 mg/kg and dissolved in a small volume of ethanol. Peanut oil was added thereto to result in a final ethanol concentration of 5%. The resulting mixture was orally administered for three successive days. The uterine removed on the next day was weighed. EGCG was dissolved by adding ethanol and water was then added thereto to adjust the final ethanol concentration to 10%. The solution was orally administered on the day before the administration of BisA and 30 minutes before each of the successive administrations of BisA.

female SD rat [6] = assay: Agonistic (estrogenic) activity: immature rat uterine weight (Example 1(2)); conditions: for Uterine weight / Ratio: substance alone; for Uterine weight: once a day for 3 days, mean ± standard error; for Ratio: uterine weight vs control group (100%), 3 days
Procedure: as §2, with “or EGCG (80 or 800” for “(800”, “was administered. […]” for “and EGCG (800 mg/kg) were administered at the same time.”

female SD rat [7] = assay: Anti-estrogenic activity of solution of EGCG in ethanol against 4-nonylphenol, rat uterine weight (Example 3); conditions: NP 50 mg/kg oral + EGCG 200 mg/kg oral in 10% ethanol
Procedure: A 16-days old female SD rat (Japan SLC) was purchased together with its mother, weaned at 19 days of age, and subjected to experiments from the next day.
4-Nonylphenol (hereinafter referred to as NP) was weighed such that it would be administered at 50 mg/kg and diluted by adding peanut oil thereto. The resulting mixture was orally administered for three successive days. The uterine removed on the day after the third administration day was weighed. EGCG was dissolved by adding ethanol and water was then added thereto to adjust the final ethanol concentration to 10%. The solution was orally administered 90 minutes before the administration of NP.

[8] = BisA 40 mg/kg s.c. + EGCG 200 mg/kg oral in 0 % ethanol
[9] = BisA 40 mg/kg s.c. + EGCG 200 mg/kg oral in 0.5% ethanol
[10] = BisA 40 mg/kg s.c. + EGCG 200 mg/kg oral in 1 % ethanol
[11] = BisA 40 mg/kg s.c. + EGCG 200 mg/kg oral in 5 % ethanol
[12] = BisA 40 mg/kg s.c. + EGCG 200 mg/kg oral in 10 % ethanol
[13] = BisA 40 mg/kg oral + EGCG 40 mg/kg oral in 10% ethanol
[14] = BisA 40 mg/kg oral + EGCG 100 mg/kg oral in 10% ethanol
[15] = BisA 40 mg/kg subcutaneous + EGCG 40 mg/kg oral in 10% ethanol
[16] = BisA 40 mg/kg subcutaneous + EGCG 100 mg/kg oral in 10% ethanol
[17] = BisA 40 mg/kg s.c. + EGCG 200 mg/kg oral in 0% ethanol
[18] = BisA 40 mg/kg s.c. + EGCG 200 mg/kg oral in 10% ethanol
[19] = BisA 200 mg/kg oral + EGCG 100 mg/kg oral in 10% ethanol
[20] = BisA 200 mg/kg oral + EGCG 200 mg/kg oral in 10% ethanol

O=C(O[C@@H]1Cc2c(O)cc(O)cc2O[C@@H]1c1cc(O)c(O)c(O)c1)c1cc(O)c(O)c(O)c1 [EGCG, epigallocatechin gallate]
Uterine weight (female SD rat [1]; [8]): 43.3 ± 1.8 mg
Uterine weight (female SD rat [1]; [9]): 40.9 ± 1.8 mg
Uterine weight (female SD rat [1]; [10]): 40.1 ± 2.0 mg
Uterine weight (female SD rat [1]; [11]): 37.6 ± 1.8 mg
Uterine weight (female SD rat [1]; [12]): 37.0 ± 1.3 mg
Ratio (female SD rat [1]; [8]): 161%
Ratio (female SD rat [1]; [9]): 152%
Ratio (female SD rat [1]; [10]): 149%
Ratio (female SD rat [1]; [11]): 140%
Ratio (female SD rat [1]; [12]): 138%
Uterine weight (female SD rat [2]; in peanut oil, mean ± standard error): 43.0 ± 2.7 mg
Ratio (female SD rat [2]; vs control (100%)): 116%
Uterine weight (female SD rat [3]; [13]): 34.8 ± 2.8 mg
Uterine weight (female SD rat [3]; [14]): 33.0 ± 4.4 mg
Uterine weight (female SD rat [3]; [15]): 44.4 ± 1.5 mg
Uterine weight (female SD rat [3]; [16]): 39.6 ± 1.0 mg
Ratio (female SD rat [3]; [13]): 106%
Ratio (female SD rat [3]; [14]): 101** %
Ratio (female SD rat [3]; [15]): 136%
Ratio (female SD rat [3]; [16]): 121*** %
Uterine weight (female SD rat [4]; [17]): 50.9 ± 2.2 mg
Uterine weight (female SD rat [4]; [18]): 36.4 ± 1.4 mg
suppression of the increase in uterine weight (in words) (female SD rat [4]; BisA 40 mg/kg s.c. + EGCG 200 mg/kg oral without ethanol): the increase was not suppressed
Ratio (female SD rat [4]; [17]): 165%
Ratio (female SD rat [4]; [18]): 118%
Uterine weight (female SD rat [5]; [14]): 41.2 ± 2.2 mg
Uterine weight (female SD rat [5]; [19]): 47.4 ± 2.6 mg
Uterine weight (female SD rat [5]; [20]): 39.8 ± 4.5 mg
Ratio (female SD rat [5]; [14]): 95%
Ratio (female SD rat [5]; [19]): 109%
Ratio (female SD rat [5]; [20]): 92%
increased uterine weight (in words) (female SD rat [6]; EGCG alone, 80 or 800 mg/kg oral): did not result in increased uterine weight
Uterine weight (female SD rat [6]; 80 mg/kg oral in peanut oil): 42.2 ± 1.7 mg
Uterine weight (female SD rat [6]; 800 mg/kg oral in peanut oil): 39.3 ± 3.2 mg
Ratio (female SD rat [6]; 80 mg/kg oral): 104%
Ratio (female SD rat [6]; 800 mg/kg oral): 97%
Uterine weight (female SD rat [7]; 90 minutes before NP): 33.7 ± 1.9 mg
Ratio (female SD rat [7]; vs control (100%)): 109%
